# Target: T1, Flag/GST-tagged recombinant human B-Raf (Homo sapiens, UniProt P15056)
# T1 construct: Flag; GST; made in house; host or cells: Sf9 insect cells (B-Raf); E. coli (MEK1-GST)
# Assay: B-Raf kinase assay (phosphorylation of GST-MEK1, phospho-MEK1 antibody/Europium detection)
# Type: biochemical
# Conditions: B-Raf IC50 Data for compounds of Formula A; read-out: Mean IC50
# Summary of the method: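 Percent inhibition was calculated at each compound concentration from Europium time-resolved fluorescence (anti-phospho-MEK1, then Eu-conjugated anti-rabbit) after GST capture. The upstream kinase step used GST-MEK1 with 0.2 nM B-Raf for 45 min at room temperature in MOPS buffer, pH 7.2. It was started with a cocktail of 200 μM ATP and 40 mM MgCl2.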
# T1 sequence (P15056 whole entry): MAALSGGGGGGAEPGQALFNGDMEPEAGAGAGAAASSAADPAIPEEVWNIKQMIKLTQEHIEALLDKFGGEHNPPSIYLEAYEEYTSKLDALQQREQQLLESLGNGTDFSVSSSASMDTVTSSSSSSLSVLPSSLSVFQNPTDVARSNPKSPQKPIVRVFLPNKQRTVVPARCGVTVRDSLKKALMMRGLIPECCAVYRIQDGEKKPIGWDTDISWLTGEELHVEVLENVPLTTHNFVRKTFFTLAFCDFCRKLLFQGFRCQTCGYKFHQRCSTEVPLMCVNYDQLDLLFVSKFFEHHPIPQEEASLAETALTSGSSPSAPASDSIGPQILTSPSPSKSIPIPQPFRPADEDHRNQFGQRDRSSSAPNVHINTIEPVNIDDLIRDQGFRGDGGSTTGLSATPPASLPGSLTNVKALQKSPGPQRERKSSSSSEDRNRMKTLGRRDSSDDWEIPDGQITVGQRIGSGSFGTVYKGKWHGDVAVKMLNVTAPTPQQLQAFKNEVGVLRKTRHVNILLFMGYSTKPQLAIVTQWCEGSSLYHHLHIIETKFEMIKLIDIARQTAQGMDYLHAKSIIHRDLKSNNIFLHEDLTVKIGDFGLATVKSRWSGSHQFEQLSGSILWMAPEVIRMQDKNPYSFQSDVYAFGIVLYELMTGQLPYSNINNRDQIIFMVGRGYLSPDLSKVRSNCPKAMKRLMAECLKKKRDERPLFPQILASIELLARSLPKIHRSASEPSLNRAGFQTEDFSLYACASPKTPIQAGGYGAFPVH
row,Structure (SMILES),IC50
1,"CN1C[C@@H]2C[C@H]1CN2c1ccc(-c2ccnc3c(-c4cccc(O)c4)c(-c4ccncc4)nn23)c(Cl)c1 [Example 60, 3-(7-(2-Chloro-4-((1S,4S)-5-methyl-2,5-diazabicyclo[2.2.1]heptan-2-yl)phenyl)-2-(pyridin-4-yl)pyrazolo[1,5-a]pyrimidin-3-yl)phenol]",< 0.3 nM
2,"C[N+]1([O-])C[C@@H]2C[C@H]1CN2c1ccc(-c2ccnc3c(-c4cccc5[nH]ncc45)c(-c4ccncc4)nn23)c(F)c1 (stereo partly drawn) [Example 95, 7-{2-fluoro-4-[(1S,4S)-5-methyl-5-oxido-2,5-diazabicyclo[2.2.1]hept-2-yl]phenyl}-3-(1H-indazol-4-yl)-2-pyridin-4-ylpyrazolo[1,5-a]pyrimidine]",0.59 nM
3,"CCOC(=O)N1C2CCC1CC(c1ccnc3c(-c4cccc(O)c4)c(-c4ccncc4)nn13)C2 (stereo not shown) [Example 8, Ethyl 3-(3-(3-hydroxyphenyl)-2-(pyridin-4-yl)pyrazolo[1,5-a]pyrimidin-7-yl)-8-azabicyclo[3.2.1]octane-8-carboxylate]",1 nM
4,"Fc1cc(CN2C3COCC2COC3)ccc1-c1ccnc2c(-c3cccc4[nH]ncc34)c(-c3ccncc3)nn12 [Example 210, 9-{3-fluoro-4-[3-(1H-indazol-4-yl)-2-pyridin-4-ylpyrazolo[1,5-a]pyrimidin-7-yl]benzyl}-3,7-dioxa-9-azabicyclo[3.3.1]nonane]",0.7 nM
5,"CC(C)(C)OC(=O)N1C[C@@H]2C[C@H]1CN2Cc1cccc(-c2ccnc3c(-c4cccc5[nH]ncc45)c(-c4ccncc4)nn23)c1 [Example 202, tert-butyl (1S,4S)-5-{3-[3-(1H-indazol-4-yl)-2-pyridin-4-ylpyrazolo[1,5-a]pyrimidin-7-yl]benzyl}-2,5-diazabicyclo[2.2.1]heptane-2-carboxylate]",> 100 nM
6,"Fc1cc(CN2C[C@H]3C[C@@H]2CO3)ccc1-c1ccnc2c(-c3cccc4[nH]ncc34)c(-c3ccncc3)nn12 [Example 207, 7-{2-fluoro-4-[(1R,4R)-2-oxa-5-azabicyclo[2.2.1]hept-5-ylmethyl]phenyl}-3-(1H-indazol-4-yl)-2-pyridin-4-ylpyrazolo[1,5-a]pyrimidine]",0.5 nM
7,"Fc1ccc(-c2c(-c3ccncc3)nn3c(-c4ccc(N5C[C@@H]6C[C@H]5CN6)cc4Cl)ccnc23)c2cn[nH]c12 [Example 184, 7-{2-chloro-4-[(1S,4S)-2,5-diazabicyclo[2.2.1]hept-2-yl]phenyl}-3-(7-fluoro-1H-indazol-4-yl)-2-pyridin-4-ylpyrazolo[1,5-a]pyrimidine]",< 0.3 nM
8,"COc1cc(-c2c(-c3ccncc3)nn3c(-c4ccc(F)cc4N4C[C@@H]5C[C@H]4CN5C)ccnc23)ccc1Cl [Example 50, 3-(4-Chloro-3-methoxyphenyl)-7-(4-fluoro-2-((1S,4S)-5-methyl-2,5-diazabicyclo[2.2.1]heptan-2-yl)phenyl)-2-(pyridin-4-yl)pyrazolo[1,5-a]pyrimidine]",> 1000 nM
9,"CCOC(=O)N1C2CCC1CC(c1ccnc3c(-c4cccc5[nH]ncc45)c(-c4ccncc4)nn13)C2 (stereo not shown) [Example 73, Ethyl 3-[3-(1H-indazol-4-yl)-2-pyridin-4-ylpyrazolo[1,5-a]pyrimidin-7-yl]-8-azabicyclo[3.2.1]octane-8-carboxylate]",2 nM
10,"Fc1ccc(-c2c(-c3ccncc3)nn3c(C4CC5CCC(C4)N5)ccnc23)c2cn[nH]c12 (stereo not shown) [Example 137, 7-(8-azabicyclo[3.2.1]oct-3-yl)-3-(7-fluoro-1H-indazol-4-yl)-2-pyridin-4-ylpyrazolo[1,5-a]pyrimidine]",3.8 nM
11,"CN1C[C@@H]2C[C@H]1CN2c1ccc(-c2ccnc3c(-c4cccc5[nH]ncc45)c(-c4ccncc4)nn23)c(F)c1F [Example 165, 7-{2,3-difluoro-4-[(1S,4S)-5-methyl-2,5-diazabicyclo[2.2.1]hept-2-yl]phenyl}-3-(1H-indazol-4-yl)-2-pyridin-4-ylpyrazolo[1,5-a]pyrimidine]",0.6 nM
12,"CCN1C2CCC1CC(c1ccnc3c(-c4ccc(Cl)c(OC)c4)c(-c4ccncc4)nn13)C2 (stereo not shown) [Example 17, 3-(4-Chloro-3-methoxyphenyl)-7-(8-ethyl-8-azabicyclo[3.2.1]oct-3-yl)-2-pyridin-4-ylpyrazolo[1,5-a]pyrimidine]",44 nM
13,"CN1C[C@@H]2C[C@H]1CN2c1cc(F)ccc1-c1ccnc2c(-c3cccc4[nH]ncc34)c(-c3ccncc3)nn12 [Example 47, 7-(4-Fluoro-2-((1S,4S)-5-methyl-2,5-diazabicyclo[2.2.1]heptan-2-yl)phenyl)-3-(1H-indazol-4-yl)-2-(pyridin-4-yl)pyrazolo[1,5-a]pyrimidine]",0.8 nM
14,"Brc1cc(N2C[C@@H]3C[C@H]2CN3)ccc1-c1ccnc2c(-c3cccc4[nH]ncc34)c(-c3ccncc3)nn12 [Example 187, 7-{2-bromo-4-[(1S,4S)-2,5-diazabicyclo[2.2.1]hept-2-yl]phenyl}-3-(1H-indazol-4-yl)-2-pyridin-4-ylpyrazolo[1,5-a]pyrimidine]",< 0.3 nM
15,"Oc1cccc(-c2c(-c3ccncc3)nn3c(-c4ccc(N[C@H]5CN6CCC5CC6)nc4)ccnc23)c1 [Example 3, 3-(7-{6-[(3R)-1-Azabicyclo[2.2.2]oct-3-ylamino]pyridin-3-yl}-2-pyridin-4-ylpyrazolo[1,5-a]pyrimidin-3-yl)phenol]",1 nM
16,"Fc1ccc(-c2c(-c3ccncc3)nn3c(-c4ccc(N5C[C@@H]6C[C@H]5CN6)cc4)ccnc23)c2cn[nH]c12 [Example 103, 7-[4-(2,5-Diaza-bicyclo[2.2.1]hept-2-yl)-phenyl]-3-(7-fluoro-1H-indazol-4-yl)-2-pyridin-4-yl-pyrazolo[1,5-a]pyrimidine]",< 0.3 nM
17,"c1cc(-c2c(-c3ccncc3)nn3c(-c4ccc(N5CC6CCC(C5)O6)nc4)ccnc23)c2cn[nH]c2c1 [Example 200, 3-(1H-indazol-4-yl)-7-[6-(8-oxa-3-azabicyclo[3.2.1]oct-3-yl)pyridin-3-yl]-2-pyridin-4-ylpyrazolo[1,5-a]pyrimidine]",5.8 nM
18,"CN1C2CCC1CN(c1ccc(-c3ccnc4c(-c5cccc6[nH]ncc56)c(-c5ccncc5)nn34)cn1)C2 [Example 140, 3-(1H-indazol-4-yl)-7-[6-(8-methyl-3,8-diazabicyclo[3.2.1]oct-3-yl)pyridin-3-yl]-2-pyridin-4-ylpyrazolo[1,5-a]pyrimidine]",1.2 nM
19,"FC(F)(F)c1cc(N2C[C@@H]3C[C@H]2CN3)ccc1-c1ccnc2c(-c3cccc4[nH]ncc34)c(-c3ccncc3)nn12 [Example 186, 7-{4-[(1S,4S)-2,5-diazabicyclo[2.2.1]hept-2-yl]-2-(trifluoromethyl)phenyl}-3-(1H-indazol-4-yl)-2-pyridin-4-ylpyrazolo[1,5-a]pyrimidine]",1.1 nM
20,"CN1C[C@@H]2C[C@H]1CN2c1ccc(-c2ccnc3c(-c4cccc5[nH]ncc45)c(-c4ccncc4)nn23)c(Br)c1 [Example 190, 7-{2-bromo-4-[(1S,4S)-5-methyl-2,5-diazabicyclo[2.2.1]hept-2-yl]phenyl}-3-(1H-indazol-4-yl)-2-pyridin-4-ylpyrazolo[1,5-a]pyrimidine]",< 0.3 nM
21,"Fc1ccc(-c2c(-c3ccncc3)nn3c2nccc3[C@H]2CC[C@H](N3CC4CCC(C3)O4)CC2)c2cn[nH]c12 (relative stereo) [Example 180, 3-(7-fluoro-1H-indazol-4-yl)-7-[trans-4-(8-oxa-3-azabicyclo[3.2.1]oct-3-yl)cyclohexyl]-2-pyridin-4-ylpyrazolo[1,5-a]pyrimidine]",1.8 nM
22,"c1cc(-c2c(-c3ccncc3)nn3c(-c4ccc(CN5C[C@@H]6C[C@H]5CO6)s4)ccnc23)c2cn[nH]c2c1 [Example 197, 3-(1H-indazol-4-yl)-7-{5-[(1S,4S)-2-oxa-5-azabicyclo[2.2.1]hept-5-ylmethyl]thiophen-2-yl}-2-pyridin-4-ylpyrazolo[1,5-a]pyrimidine]",5.7 nM
23,"N#CCN1C2CCC1CC(c1ccnc3c(-c4cccc5[nH]ncc45)c(-c4ccncc4)nn13)C2 (stereo not shown) [Example 117, {3-[3-(1H-indazol-4-yl)-2-pyridin-4-ylpyrazolo[1,5-a]pyrimidin-7-yl]-8-azabicyclo[3.2.1]oct-8-yl}acetonitrile]",2.8 nM
24,"CC(C)(C)OC(=O)N1C[C@@H]2C[C@H]1CN2c1ccc(-c2ccnc3c(-c4ccc(F)c5[nH]ncc45)c(-c4ccncc4)nn23)c(Cl)c1 [Example 175, tert-butyl (1S,4S)-5-{3-chloro-4-[3-(7-fluoro-1H-indazol-4-yl)-2-pyridin-4-ylpyrazolo[1,5-a]pyrimidin-7-yl]phenyl}-2,5-diazabicyclo[2.2.1]heptane-2-carboxylate]",1 nM
25,"CN1C[C@@H]2C[C@H]1CN2c1ccc(-c2ccnc3c(-c4cccc5[nH]ncc45)c(-c4ccncc4)nn23)cc1C(F)(F)F [Example 159, 3-(1H-indazol-4-yl)-7-{4-[(1S,4S)-5-methyl-2,5-diazabicyclo[2.2.1]hept-2-yl]-3-(trifluoromethyl)phenyl}-2-pyridin-4-ylpyrazolo[1,5-a]pyrimidine]",2 nM
26,"NC(=O)N1C2CCC1CC(c1ccnc3c(-c4cccc5[nH]ncc45)c(-c4ccncc4)nn13)C2 (stereo not shown) [Example 115, 3-[3-(1H-indazol-4-yl)-2-pyridin-4-ylpyrazolo[1,5-a]pyrimidin-7-yl]-8-azabicyclo[3.2.1]octane-8-carboxamide]",9.1 nM
27,"COc1cc(-c2c(-c3ccncc3)nn3c(-c4ccc(NC5CN6CCC5CC6)nc4)ccnc23)ccc1Cl [Example 5, 5-(7-{6-[(3R)-1-Azabicyclo[2.2.2]oct-3-ylamino]pyridin-3-yl}-3-(4-chloro-3-methoxyphenyl)-2-pyridin-4-ylpyrazolo[1,5-a]pyrimidine]",6 nM
28,"OCCN1C2CCC1CC(c1ccnc3c(-c4cccc5[nH]ncc45)c(-c4ccncc4)nn13)C2 (stereo not shown) [Example 112, 2-{3-[3-(1H-indazol-4-yl)-2-pyridin-4-ylpyrazolo[1,5-a]pyrimidin-7-yl]-8-azabicyclo[3.2.1]oct-8-yl}ethanol]",22.8 nM

# — patent publication US20100029657A1, “Bridged, Bicyclic Heterocyclic or Spiro Bicyclic Heterocyclic Derivatives of Pyrazolo[1, 5-A]Pyrimidines, Methods for Preparation and Uses Thereof” (Wyeth, priority 2008, published 2010)
